# Source: US10301295B2, “Herbicidal compounds” (Syngenta Participations AG, priority 2014, dated 2019)
# Where two headings read alike, the source gives them in different places.
# Columns and labels:
# Format in all cases: in vivo
# wheat = test: Post-emergence herbicidal activity against cereal crops (wheat) +/- safener, crop selectivity; conditions: 100%=total damage to plant, 0%=no damage; for Post-emergence herbicidal activity against wheat (percentage phytotoxicity), +CQC: 250 g/ha, plus safener cloquintocet-mexyl (CQC) applied at 50 g/ha; for percent phytotoxicity (crop damage) to wheat at 250 g/ha: Triticum aestivum, 360 h, without safener, read-out: Post-emergence herbicidal activity against wheat (percentage phytotoxicity), Wheat - CQC
# Method in brief: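 Test plants raised in pots in a glasshouse (24/18 °C warm or 20/16 °C cool species day/night, 16 h light, 65% humidity) and treated post-emergence about 12 days after sowing. Visual percentage phytotoxicity scored 15 days after application (0% = no damage, 100% = total damage).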
# Avena fatua (AVEFA) = test: Glasshouse assay for herbicidal activity, pre-/post-emergence (percentage phytotoxicity); conditions: Avena fatua, Rate 250 g/ha, 100%=total damage, 0%=no damage
# Method in brief: (§1)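 Visual score (0–100% damage) at 15DAA post-em / 20DAA pre-em. Pots, std soil; treated 1 d (pre) or ~12 d (post) after sowing. 24/18 °C warm spp., 20/16 °C cool spp., 16 h light, 65% RH.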
# [1] = tested on: Alopecurus myosuroides (ALOMY); test: as above; conditions: Alopecurus myosuroides, Rate 250 g/ha, 100%=total damage, 0%=no damage
# Method in brief: as §1
# Lolium perenne (LOLPE) = test: as above; conditions: Lolium perenne, Rate 250 g/ha, 100%=total damage, 0%=no damage
# Method in brief: as §1
# [2] = tested on: Echinochloa crus-galli (ECHCG); test: as above; conditions: Echinochloa crus-galli, Rate 250 g/ha, 100%=total damage, 0%=no damage
# Method in brief: as §1
# [3] = post-emergence, 360 h, post-emergence, visual assessment 15 DAA, read-out: Post-emergence herbicidal activity (percentage phytotoxicity), AVEFA POST
# [4] = pre-emergence, 480 h, pre-emergence, visual assessment 20 DAA, read-out: Pre-emergence herbicidal activity (percentage phytotoxicity), AVEFA PRE
# [5] = 360 h, post-emergence, visual assessment 15 DAA, read-out: Post-emergence herbicidal activity (percentage phytotoxicity), ALOMY POST
# [6] = 480 h, pre-emergence, visual assessment 20 DAA, read-out: Pre-emergence herbicidal activity (percentage phytotoxicity), ALOMY PRE
# [7] = post-emergence, 360 h, post-emergence, visual assessment 15 DAA, read-out: Post-emergence herbicidal activity (percentage phytotoxicity), LOLPE POST
# [8] = pre-emergence, 480 h, pre-emergence, visual assessment 20 DAA, read-out: Pre-emergence herbicidal activity (percentage phytotoxicity), LOLPE PRE
# [9] = post-emergence, 360 h, post-emergence, visual assessment 15 DAA, read-out: Post-emergence herbicidal activity (percentage phytotoxicity), ECHCG POST
# [10] = pre-emergence, 480 h, pre-emergence, visual assessment 20 DAA, read-out: Pre-emergence herbicidal activity (percentage phytotoxicity), ECHCG PRE
Compound,"Post-emergence herbicidal activity against wheat (percentage phytotoxicity), +CQC (wheat)",percent phytotoxicity (crop damage) to wheat at 250 g/ha (wheat),pest or weed control at 250 g/ha (Avena fatua (AVEFA); [3]),pest or weed control at 250 g/ha (Avena fatua (AVEFA); [4]),"pest or weed control at 250 g/ha [1, 5]","pest or weed control at 250 g/ha [1, 6]",pest or weed control at 250 g/ha (Lolium perenne (LOLPE); [7]),pest or weed control at 250 g/ha (Lolium perenne (LOLPE); [8]),"pest or weed control at 250 g/ha [2, 9]","pest or weed control at 250 g/ha [2, 10]"
Cc1cc(-c2ncc(Cl)cc2F)cc(C)c1C1C(=O)CC(CCNC(=O)N(C)c2ccccn2)C1=O.Cl (stereo not shown) [Compound A27],70%,80%,90%,90%,90%,60%,100%,90%,100%,90%
Cc1cc(-n2cc(Cl)cn2)cc(C)c1C1C(=O)CC(CCNC(=O)Nc2ccncn2)C1=O.Cl (stereo not shown) [Compound A33],10%,40%,40%,40%,40%,60%,30%,0%,80%,70%
Cc1cc(C)c(C2C(=O)CC(CCNC(=O)NC(=O)c3ccccc3C(F)(F)F)C2=O)c(C)c1 (stereo not shown) [Compound A60],70%,80%,100%,80%,100%,70%,90%,80%,80%,70%
COc1ccc(S(=O)(=O)NCCC2CC(=O)C(c3c(C)cc(C)cc3C)C2=O)cc1 (stereo not shown) [Compound A79],0%,30%,60%,10%,30%,30%,60%,70%,40%,50%
Cc1cc(C)c(C2C(=O)CC(CCNC(=O)Nc3ccccn3)C2=O)c(C)c1.Cl (stereo not shown) [Compound A3],60%,90%,90%,80%,100%,100%,100%,90%,100%,100%
Cc1cc(C)c(C2C(=O)CC(CCNS(=O)(=O)c3cccs3)C2=O)c(C)c1 (stereo not shown) [Compound A82],0%,0%,30%,0%,40%,70%,50%,70%,20%,30%
Cc1cc(C)c(C2C(=O)CC(CCNC(=O)NC(=O)c3ccc(Cl)cc3F)C2=O)c(C)c1 (stereo not shown) [Compound A59],80%,90%,90%,30%,90%,70%,100%,80%,90%,100%
Cc1ccc(C(=O)NC(=O)NCCC2CC(=O)C(c3c(C)cc(C)cc3C)C2=O)cc1 (stereo not shown) [Compound A55],0%,30%,0%,10%,70%,60%,90%,70%,80%,80%
Cc1cc(C)c(C2C(=O)CC(CCNC(=O)NC(=O)c3c(F)cccc3F)C2=O)c(C)c1 (stereo not shown) [Compound A48],50%,60%,100%,90%,90%,100%,100%,100%,100%,90%
COc1ccc(C(=O)NC(=O)NCCC2CC(=O)C(c3c(C)cc(C)cc3C)C2=O)cc1 (stereo not shown) [Compound A57],20%,80%,50%,0%,90%,80%,100%,70%,80%,100%
Cc1cc(C)c(C2C(=O)CC(CCNS(=O)(=O)c3ccc(Cl)cc3Cl)C2=O)c(C)c1 (stereo not shown) [Compound A84],0%,0%,80%,10%,30%,50%,70%,50%,50%,30%
Cc1cc(C)c(C2C(=O)CC(CCNc3ccc(C(F)(F)F)cn3)C2=O)c(C)c1 (stereo not shown) [Compound A34],70%,80%,90%,80%,90%,90%,90%,100%,100%,100%
Cc1cc(C)c(C2C(=O)CC(CCNc3ncc(C(F)(F)F)cc3Cl)C2=O)c(C)c1 (stereo not shown) [Compound A36],10%,80%,100%,90%,90%,60%,100%,90%,90%,90%
Cc1cc(C)c(C2C(=O)CC(CCNC(=O)NC(=O)c3ccccc3C)C2=O)c(C)c1 (stereo not shown) [Compound A50],90%,90%,90%,80%,100%,100%,100%,90%,80%,90%
Cc1cc(-c2ncc(Cl)cc2F)cc(C)c1C1C(=O)CC(CCNC(=O)Nc2ccccn2)C1=O (stereo not shown) [Compound A19],80%,80%,100%,90%,90%,70%,100%,80%,100%,80%
Cc1cc(C)c(C2C(=O)CC(CCNC(=S)Nc3ccc(F)cc3)C2=O)c(C)c1 (stereo not shown) [Compound A89],0%,10%,40%,0%,0%,0%,0%,40%,0%,30%
